biological target: T1, human TLR7 (Homo sapiens, UniProt Q9NYK1); assay: HEK-Blue TLR7 reporter assay (human TLR7 agonist activity, SEAP reporter); assay type: cell-based; details: Table A, formula IIa compounds; HEK-Blue TLR7 cells, 18 h treatment, SEAP read-out
T1 construct: host or cells: HEK-Blue TLR7 cells (engineered human embryonic kidney cells)
T1 sequence (Q9NYK1 27-1049): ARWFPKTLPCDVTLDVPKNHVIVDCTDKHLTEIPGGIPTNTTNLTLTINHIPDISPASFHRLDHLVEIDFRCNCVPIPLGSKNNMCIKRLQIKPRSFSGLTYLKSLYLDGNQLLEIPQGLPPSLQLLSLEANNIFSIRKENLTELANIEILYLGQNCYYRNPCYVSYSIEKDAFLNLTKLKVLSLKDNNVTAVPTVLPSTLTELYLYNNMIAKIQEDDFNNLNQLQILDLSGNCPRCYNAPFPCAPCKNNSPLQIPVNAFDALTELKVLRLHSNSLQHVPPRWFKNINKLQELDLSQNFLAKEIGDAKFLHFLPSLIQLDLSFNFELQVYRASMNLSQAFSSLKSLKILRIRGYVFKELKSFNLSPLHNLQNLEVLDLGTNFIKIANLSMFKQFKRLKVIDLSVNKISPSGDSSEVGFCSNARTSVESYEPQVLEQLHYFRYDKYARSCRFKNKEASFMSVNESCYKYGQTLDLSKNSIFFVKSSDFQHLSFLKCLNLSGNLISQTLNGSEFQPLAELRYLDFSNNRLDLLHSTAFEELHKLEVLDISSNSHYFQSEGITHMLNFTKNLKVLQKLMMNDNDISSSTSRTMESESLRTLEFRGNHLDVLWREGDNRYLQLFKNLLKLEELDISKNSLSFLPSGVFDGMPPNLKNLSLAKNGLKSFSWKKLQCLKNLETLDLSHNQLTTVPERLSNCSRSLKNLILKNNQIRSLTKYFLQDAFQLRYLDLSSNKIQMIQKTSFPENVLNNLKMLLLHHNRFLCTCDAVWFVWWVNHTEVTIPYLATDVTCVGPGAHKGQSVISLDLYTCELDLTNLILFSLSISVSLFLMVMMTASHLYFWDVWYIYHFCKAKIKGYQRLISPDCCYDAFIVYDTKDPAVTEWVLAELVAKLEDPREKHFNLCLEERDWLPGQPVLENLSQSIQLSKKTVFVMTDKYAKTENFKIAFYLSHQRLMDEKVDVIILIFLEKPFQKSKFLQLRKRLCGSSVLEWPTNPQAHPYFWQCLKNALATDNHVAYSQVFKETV
Method: This procedure describes a method for assaying human TLR7 (hTLR7) agonist activity of the compounds disclosed in this specification.
HEK-Blue™ TLR7 cells were added to each well of a 384-well tissue-culture plate (15,000 cells per well) and incubated 16-18 h at 37° C., 5% CO2. […] After 18 h treatment ten microliters of freshly-prepared Quanti-Blue™ reagent (Invivogen) was added to each well, incubated for 30 min (37° C., 5% CO2) and SEAP levels measured using an Envision plate reader (OD=620 nm).

EC50	Compound
340 nM	CCCCNc1nc(N)nc2cn(Cc3ccc(CNC4CCC4)cc3OC)nc12 [IIa-01]
510 nM	CCCCNc1nc(N)nc2cn(Cc3ccc(CN4CCNCC4)cc3OC)nc12 [IIa-02]
1000 nM	CCCCNc1nc(N)nc2cn(Cc3ccc(CNCCO)cc3OC)nc12 [IIa-03]
1600 nM	CCCCNc1nc(N)nc2cn(Cc3ccc(CNCCCN)cc3OC)nc12 [IIa-04]
450 nM	CCCCNc1nc(N)nc2cn(Cc3ccc(CNCc4ccncc4)cc3OC)nc12 [IIa-05]
610 nM	CCCCNc1nc(N)nc2cn(Cc3ccc(CNCC4COC4)cc3OC)nc12 [IIa-07]
650 nM	CCCCNc1nc(N)nc2cn(Cc3ccc(CNC4CCC(O)CC4)cc3OC)nc12 (stereo not shown) [IIa-08]
420 nM	CCCCNc1nc(N)nc2cn(Cc3ccc(CNC4CC(O)C4)cc3OC)nc12 (stereo not shown) [IIa-09]
270 nM	CCCCNc1nc(N)nc2cn(Cc3ccc(CNCc4ccc(N)cc4)cc3OC)nc12 [IIa-10]
540 nM	CCCCNc1nc(N)nc2cn(Cc3ccc(CNCCS(C)(=O)=O)cc3OC)nc12 [IIa-11]
550 nM	CCCCNc1nc(N)nc2cn(Cc3ccc(CO)cc3OC)nc12 [IIa-14]
300 nM	CCCCNc1nc(N)nc2cn(Cc3ccc(CNC4COC4)cc3OC)nc12 [IIa-15]
180 nM	CCCCNc1nc(N)nc2cn(Cc3ccc(CN4CCN(CCO)CC4)cc3OC)nc12 [IIa-17]
320 nM	CCCCNc1nc(N)nc2cn(Cc3ccc(CNC4CCOCC4)cc3OC)nc12 [IIa-19]
280 nM	CCCCNc1nc(N)nc2cn(Cc3ccc(CNCC(C)(C)O)cc3OC)nc12 [IIa-20]
190 nM	CCCCNc1nc(N)nc2cn(Cc3ccc(Cn4ccnc4)cc3OC)nc12 [IIa-21]

EC50	Compound
200 nM	CCCCNc1nc(N)nc2cn(Cc3ccc(CNCCOC)cc3OC)nc12 [IIa-22]
303 nM	CCCCNc1nc(N)nc2cn(Cc3ccc(CN4CC(CCO)C4)cc3OC)nc12 [IIa-23]
130 nM	CCCCNc1nc(N)nc2cn(Cc3ccc(CNCC4CC(O)C4)cc3OC)nc12 (stereo not shown) [IIa-24]
880 nM	CCCCNc1nc(N)nc2cn(Cc3ccc(CNc4ccc(CCO)cc4)cc3OC)nc12 [IIa-25]
194 nM	CCCCNc1nc(N)nc2cn(Cc3ccc(CN(C)CCCO)cc3OC)nc12 [IIa-26]
710 nM	CCCCNc1nc(N)nc2cn(Cc3ccc(CN4CC5CC4CN5)cc3OC)nc12 (stereo not shown) [IIa-27]
430 nM	CCCCNc1nc(N)nc2cn(Cc3ccc(CNC4(CO)CCCC4)cc3OC)nc12 [IIa-28]
760 nM	CCCCNc1nc(N)nc2cn(Cc3ccc(CN4CCCNCC4)cc3OC)nc12 [IIa-29]
580 nM	CCCCNc1nc(N)nc2cn(Cc3ccc(CN4CCOCC4)cc3OC)nc12 [IIa-30]
410 nM	CCCCNc1nc(N)nc2cn(Cc3ccc(CN4CCCCC4)cc3OC)nc12 [IIa-31]
600 nM	CCCCNc1nc(N)nc2cn(Cc3ccc(CN4CCCC4)cc3OC)nc12 [IIa-32]
810 nM	CCCCNCc1ccc(Cn2cc3nc(N)nc(NCCCC)c3n2)c(OC)c1 [IIa-33]
550 nM	CCCCNc1nc(N)nc2cn(Cc3ccc(CNC(C)(C)C)cc3OC)nc12 [IIa-34]
2100 nM	CCC[C@@H](CCO)Nc1nc(N)nc2cn(Cc3ccc(CO)cc3OC)nc12 [IIa-35]
520 nM	CCCCNc1nc(N)nc2cn(Cc3ccc(CN4CCN(C)CC4)cc3OC)nc12 [IIa-36]

same assay, conditions: Table B, formula IIb compounds; HEK-Blue TLR7 cells, 18 h treatment, SEAP read-out

EC50	Compound
820 nM	CCCCNc1nc(N)nc2cn(Cc3ccc(Oc4ccc(CO)cc4)nc3)nc12 [IIb-01]
1600 nM	CCCCNc1nc(N)nc2cn(Cc3ccc(Oc4ccc(CNCCO)cc4)cc3OC)nc12 [IIb-02]
2100 nM	CCCCNc1nc(N)nc2cn(Cc3ccc(Oc4ccc(CNCCO)cc4)nc3)nc12 [IIb-04]

Reference: patent US11400094B2, “2H-pyrazolo[4,3-d]pyrimidine compounds as toll-like receptor 7 (TLR7) agonists and methods and uses therefor” (BRISTOL-MYERS SQUIBB COMPANY, priority 2018, dated 2022)
